For this test, the system named is neuS gene product of E.coli K92 expressed in BL21(DE3). The test is described as follows: Sialyltransferase assay: substrate specificity for acceptor substrates (transfer of 14C-NeuAc from CMP[14C]NeuAc). The note with it: for Total sialic acid transferred / cpm obtained (per 60 ul reaction): 1 (M acceptor, 9 nmol CMP[14C]NeuAc (8000 cpm/nmol) as donor, 37 °C, 1 hr, 20 (g of 40K Sup; for Total sialic acid transferred: per 60 ul reaction; for cpm obtained (per 60 ul reaction): product spot on DEAE-cellulose TLC counted; for suitability as acceptor substrate (in words): cell-free fractions (15 K Sup, 40 K Sup, pellet), CMP[14C]NeuAc as donor. The test is classed as biochemical. Here is the method: The assay was carried out essentially as described by Vimr et al (Steenbergen, S. M. et al. (1992) J. Bacteriol. 174 : 1099-1108) with the following modifications : after harvesting, the cells were washed three times with 25 mM Tris HCI (pH 8. 0) and then resuspended in 25 mM Tris HCl (pH 8. 0) containing 5 mM MgCl2, 5 mM dithiothreitol (DTT), and 1 (1/mL protease inhibitor cocktail (Sigma). Cells were lysed three times by using a French Press (AMINCO; 1, 500 psi). The cell debris was removed by centrifugation twice at 15, 000 rpm and the supernatant was collected (termed the 15 K Sup). This supernatant was then centrifuged again at 100,000x g (~ 40 K rpm) using a Beckman ultracentrifuge (Model L5-50). Both the supernatant (termed the 40 K Sup) and the pellet were saved. The pellet was resuspended in a buffer containing 25 mM Tris-HCI, 5 mM MgCl2, 5 mM DTT, and 0.1% Triton CF-54. The supernatants and the pellet were stored on ice, and used for assay within 2 h.
Without the addition of acceptor, the endogenous enzyme activity was determined. The exogenous activity was then detected by addition of sialic acid as acceptor and CMP[^14C]NeuAc as donor in a reaction buffer containing 25 mM Tris-HCl (pH 8.0), 5 mM MgCl2, 5 mM DTT, and 0.5% Triton CF-54. Other substrates were also used, including colominic acid. Both the endogenous and exogenous enzyme activity assays measure the transfer of ^14C-labeled NeuAc to the acceptor. Unreacted radiolabeled substrates were seperated by DEAE-cellulose TLC (n-propanol/14M NH4OH/H2O:: 6 : 1: 3) or by Sephadex G-25 column chromatography. Radioactivity remaining at the origin and/or at the top of the TLC plate or the product obtained at the void volume of Sephadex G-25 column, was quantitated by liquid scintillation spectrometry. For analysis using Sephadex G-25 column chromatography, a column (1 cm x 3.5 cm) of Sephadex G-25 (Pharmacia) in water was prepared. The radiolabeled cell-free reaction mixture (60 (1) was loaded and washed with 1.5 ml of water, which was collected and counted. In some experiments, the activity was determined by separating the unused CMP[^14C]NeuAc by Dowex 1X8 (phosphate form) column chromatography (Williams, M. A. et al. (1995) Glycoconj. J. 12: 755 - 761). The initial rates were estimated graphically, and activity was expressed as pmoles of sialic acid transferred per hour.
The reaction mixture (60 (l) contained 1 (M each of the following acceptors and 9 nmol of CMP[^14C]NeuAc (specific activity: 8000 cpm/nmol) as donor substrate. The reactions were carried out at 37 °C for 1 hr using 20 (g of 40K Sup as mentioned in 'Materials and Methods.' The reaction mixture (1 (1) was spotted on a plastic backed DEAE-cellulose TLC plate, and ran in n-propanol:14.5M NH4OH:water :: 6:1:3. After air-drying, the plate was exposed to Kodak's XAR-5 film for overnight at -70° C. The area corresponding to the reaction product was marked, cut and then counted in scintillation fluid.

As for `CC(=O)N[C@H]1[C@H]([C@H](O)[C@H](O)COC(C)=O)OC(O)(C(=O)O)C[C@@H]1O` (stereo partly drawn) [9-O-acetyl sialic acid], the “Total sialic acid transferred” value is recorded as 110 pmol, the “cpm obtained (per 60 ul reaction)” value was 900 cpm and the “suitability as acceptor substrate (in words)” value (from here on “suitability”) is listed as “not well accepted”.
For the compound `CC(=O)N[C@H]1[C@H]([C@H](O)[C@H](O)CO)O[C@@](O[C@H](CO)[C@@H](O)[C@@H]2OC(O)(C(=O)O)C[C@H](O)[C@H]2NC(C)=O)(C(=O)O)C[C@@H]1O` (stereo partly drawn) [Dimer], the “Total sialic acid transferred” value is listed as 140 pmol, the “cpm obtained (per 60 ul reaction)” value is 1080 cpm and the “suitability” value is listed as “poor acceptors”.
On to `CC(=O)N[C@H]1[C@H]([C@H](O)[C@H](O)CO)OC(O)(C(=O)O)C[C@@H]1O` (stereo partly drawn) [Monomer, sialic acid], for which the “Total sialic acid transferred” value turned out to be 470 pmol, the “cpm obtained (per 60 ul reaction)” value was found to be 3780 cpm and the “suitability” value is “good acceptors”. For the same compound, the “suitability” value (listed as neuraminic acid) is “best substrate”.
As for `CC(=O)N[C@H]1[C@H]([C@H](O)[C@H](O)CO)O[C@@](O[C@H](CO)[C@@H](O)[C@@H]2O[C@@](O[C@H](CO)[C@@H](O)[C@@H]3OC(O)(C(=O)O)C[C@H](O)[C@H]3NC(C)=O)(C(=O)O)C[C@H](O)[C@H]2NC(C)=O)(C(=O)O)C[C@@H]1O` (stereo partly drawn) [Trimer], the “Total sialic acid transferred” value came out at 140 pmol, the “cpm obtained (per 60 ul reaction)” value is 1560 cpm and the “suitability” value is reported as “poor acceptors”.
For the compound GT1b, the “Total sialic acid transferred” value was found to be 130 pmol and the “cpm obtained (per 60 ul reaction)” value is on record as 1140 cpm.

(Values after patent publication EP1105515B1, “ALPHA 2,8/2,9 POLYSIALYLTRANSFERASE” (THE SCRIPPS RESEARCH INSTITUTE, priority 1998, dated 2000).)
